In the experiment the test system is gp100170-190-specific T cell clone (HLA-DRβ1*0701 restricted). Kind of experiment: IFN-γ release by gp100-specific CD4+ T cell clones co-cultured with EBV-B cells pulsed with peptide or protein (ELISA). The format is cell-based, human. The note with it: for Gp100 Peptide Identification (IFN-γ; pg/ml) 10 μM: peptide pulsed at 10 μM on EBV-B cells; for Gp100 Peptide Identification (IFN-γ; pg/ml) 10 μM / Gp100 Peptide Identification (IFN-γ; pg/ml) 50 μM: 24 h co-culture with T cell clone; for Gp100 Peptide Identification (IFN-γ; pg/ml) 50 μM: peptide pulsed at 50 μM on EBV-B cells. The text has this:
The reactivity of nine representative positive clones is presented in FIG. 1A along with 4 representative negative wells (neg1 to neg4). Eight of the 46 positive clones were expanded and further characterized. […] To further characterize the reactivity, some of the clones were co-cultured with autologous B cells pulsed with a bacterially produced gp100 protein. […] In order to identify the MHC restriction element, antibodies known to bind and block the presentation by defined MHC molecules were used. Recognition by clones 6 and 8 of target cells pulsed with the gp100 protein was inhibited when using blocking antibodies against MHC class II and HLA-DR but the recognition was unchanged when using a blocking MHC class I antibody. […] By using HLA-DR matched B cells, the restriction element was identified as HLA-DRβ1*0701 (patient A is HLA-DRβ1*0701 and *1601; FIG. 2).
To find the epitope recognized, an overlapping gp100 peptide library consisting of 68 peptides of 17 or 21 residues overlapping by 10-12 amino acids was prepared. The autologous EBV-B cells were pulsed with the peptide library and used as targets in a T cell recognition assay using three different T cell clones.
Finally, several peptides were synthesized in order to define an optimal HLA-DRβ1*0701 epitope (Rammensee, H. G. Immunogenetics 41:178-228, 1995; Chicz et al. J. Exp. Med. 178:27-47, 1993). […] Finally, substitutions were made at position 5 of the gp100174-394 peptide presuming that this is position 1 according to the defined motif for HLA-DRβ1*0701 (SYFPEITHI web site, http://syfpeithi.de/). However, none of the peptides were better recognized when pulsed at 10 μM or 1 μM compared to the wild type gp100174-394 peptide.
The gp100 peptide library consisted of 68 peptides of 17 to 21 residues overlapping by 10 to 12 amino acids. The peptides were synthesized by solid phase FMOC methodology as previously described (Parkhurst et al. J. Immunol. 157:2539-2548, 1996). A control peptide derived from the Ig kappa chain known to bind to HLA-DRβ1*0701 was also prepared (Chicz et al. J. Exp. Med. 178:27-47, 1993). Recombinant gp100 protein was made and purified as previously described Touloukian et al. J. Immunol. 164:3535-3542, 2000). Recombinant NY-ESO-1 protein is another tumor antigen (Chen, Y T and L J Old. Cancer J. Sci. Am. 5:16-17, 1999) used as negative control and was made and purified as previously described (Zeng et al. J. Immunol. 165:1153-1159, 2000). EBV-B cells (1×10^5) were pulsed with gp100-purified protein or peptides for 18 hours in 96 well flat-bottom plates and T cells were added directly to the pulsed-B cells for a 24 hours recognition assay. In some experiments, EBV-B cells (5×10^5) were pulsed in 48 well plates for 18 hours and cells were washed twice with PBS. T cells were then co-cultured with the pulsed EBV-B cells in 96 well flat-bottom plates for 24 hours. Supernatants were harvested and human IFN-γ was assayed by ELISA using a commercially available kit (R&D Inc.).
Fifty to one hundred thousand responder cells and 4×10^4-10^5 stimulator cells were mixed in 300 ul of AIM-V medium containing […] IL-2 per well in a 96 flat-well microplate. Target cells (1×10^5) were incubated with 1×10^5 specific T cells in 250 μl of T cell medium (AIM-V-based medium) in 96 well flat-bottom plates. Supernatants were harvested after 24 h and human IFN-γ was assayed by ELISA using a commercially available kit (R&D, Inc.; Minneapolis, Minn.).
A general note: In an ELISA, binding on a coated surface is turned into a signal by an enzyme label.

As to TGRAFLGTHTMEVTVYHRRGS [SEQ ID NO:17], the “Gp100 Peptide Identification (IFN-γ; pg/ml) 10 μM” value is given as 19,390 pg/ml and the “Gp100 Peptide Identification (IFN-γ; pg/ml) 50 μM” value was >25,000 pg/ml.
PVSGLSIGTGRAMLGTHTMEV [SEQ ID NO:20]: the “Gp100 Peptide Identification (IFN-γ; pg/ml) 10 μM” value is less than 8 pg/mL and the “Gp100 Peptide Identification (IFN-γ; pg/ml) 50 μM” value amounted to 19 pg/mL.
Regarding TGRAMLGTHTMEVTVYHRR [SEQ ID NO:7], the “Gp100 Peptide Identification (IFN-γ; pg/ml) 10 μM” value is given as 11,550 pg/ml and the “Gp100 Peptide Identification (IFN-γ; pg/ml) 50 μM” value was >25,000 pg/ml.
As to SIGTGRAMLGTHTMEVTVYHR [SEQ ID NO:13], the “Gp100 Peptide Identification (IFN-γ; pg/ml) 10 μM” value is 12,210 pg/ml and the “Gp100 Peptide Identification (IFN-γ; pg/ml) 50 μM” value was >25,000 pg/ml.
As to SIGTGRAMLGTHTMEVTVYH [SEQ ID NO:12], the “Gp100 Peptide Identification (IFN-γ; pg/ml) 10 μM” value is reported as 20,710 pg/ml and the “Gp100 Peptide Identification (IFN-γ; pg/ml) 50 μM” value is on record as >25,000 pg/ml.
For MLGTHTMEVTVYHRRGSRSYV [SEQ ID NO:16], in that order: 52 pg/mL and 5,940 pg/ml.
On to TGRAMLGTHTMEVTVYHR [SEQ ID NO:6], for which the “Gp100 Peptide Identification (IFN-γ; pg/ml) 10 μM” value is 11,100 pg/ml and the “Gp100 Peptide Identification (IFN-γ; pg/ml) 50 μM” value is listed as >25,000 pg/ml.
For TGRAYLGTHTMEVTVYHRRGS [SEQ ID NO:19], in that order: 11,640 pg/ml and >25,000 pg/ml.
With TGRAMLGTHTMEVTVYHRRGS [SEQ ID NO:5], the “Gp100 Peptide Identification (IFN-γ; pg/ml) 10 μM” value is given as 17,140 pg/ml and the “Gp100 Peptide Identification (IFN-γ; pg/ml) 50 μM” value is reported as >25,000 pg/ml.
For SGLSIGTGRAMLGTHTMEVTV [SEQ ID NO:14], in that order: 1,655 pg/ml and 4,200 pg/ml.
Regarding LSIGTGRAMLGTHTMEVTVYH [SEQ ID NO:3], the “Gp100 Peptide Identification (IFN-γ; pg/ml) 10 μM” value is on record as 21,000 pg/ml and the “Gp100 Peptide Identification (IFN-γ; pg/ml) 50 μM” value is given as >25,000 pg/ml. Besides, the “recognition in overlapping gp100 peptide library screen” value (68 peptides, all at 100 μM, autologous EBV-B cells, one of three T cell clones, FIG. 3A) is recorded as “specifically recognized”. Besides, the “peptide concentration below which recognition was undetectable (titration)” value (gp100170-190-specific T cell clone, peptide pulsed on EBV-B cells, FIG. 3B) was 4 to 10 µM.
For the sequence GTGRAMLGTHTMEVTVYH [SEQ ID NO:10], the “Gp100 Peptide Identification (IFN-γ; pg/ml) 10 μM” value is recorded as 18,770 pg/ml and the “Gp100 Peptide Identification (IFN-γ; pg/ml) 50 μM” value is >25,000 pg/ml.
As to IGTGRAMLGTHTMEVTVYHRR [SEQ ID NO:4], the “Gp100 Peptide Identification (IFN-γ; pg/ml) 10 μM” value is 17,050 pg/ml and the “Gp100 Peptide Identification (IFN-γ; pg/ml) 50 μM” value is listed as >25,000 pg/ml.
For TGRALLGTHTMEVTVYHRRGS [SEQ ID NO:18], in that order: 23,140 pg/ml and >25,000 pg/ml.
For the sequence RAMLGTHTMEVTVYHRRGSRS [SEQ ID NO:15], the “Gp100 Peptide Identification (IFN-γ; pg/ml) 10 μM” value was 912 pg/mL and the “Gp100 Peptide Identification (IFN-γ; pg/ml) 50 μM” value is reported as 15,230 pg/ml.
Regarding TGRAMLGTHTMEVTVYHRRG [SEQ ID NO:8], the “Gp100 Peptide Identification (IFN-γ; pg/ml) 10 μM” value was 17,910 pg/ml and the “Gp100 Peptide Identification (IFN-γ; pg/ml) 50 μM” value is >25,000 pg/ml.
For IGTGRAMLGTHTMEVTVYH [SEQ ID NO:11], in that order: 17,590 pg/ml and >25,000 pg/ml.
Take GTGRAMLGTHTMEVTVYHRRG [SEQ ID NO:9]: the “Gp100 Peptide Identification (IFN-γ; pg/ml) 10 μM” value was 22,910 pg/ml and the “Gp100 Peptide Identification (IFN-γ; pg/ml) 50 μM” value is >25,000 pg/ml.
With TGRAMLGTHTMEVTVYH [SEQ ID NO:2], the “Gp100 Peptide Identification (IFN-γ; pg/ml) 10 μM” value is reported as 14,010 pg/ml and the “Gp100 Peptide Identification (IFN-γ; pg/ml) 50 μM” value was >25,000 pg/ml.
